From article PMC9377006, “Discovery of Desmuramylpeptide NOD2 Agonists with Single-Digit Nanomolar Potency” (ACS Medicinal Chemistry Letters, 2022)
Blank lines part the entries; values can stand above or below the molecule they belong to.

Tests used:
human NOD2 = molecular target: T1, human NOD2 (Homo sapiens, UniProt Q9HC29); assay: HEK-Blue NOD2 NF-κB SEAP reporter assay (NOD2 agonistic activity); format: cell-based
T1 construct: host or cells: HEK-Blue NOD2 cells (derived from HEK293)
Description: The synthesized desmuramylpeptides were evaluated for their dose-dependent NOD2 activity using the commercially available HEK-Blue NOD2 reporter cell line. This cell line is derived from HEK293 cells by cotransfection of human NOD2 and an NF-κB-inducible secreted embryonic alkaline phosphatase (SEAP). Activation of NOD2 and subsequently of NF-κB leads to the expression and secretion of SEAP, the level of which can be quantified colorimetrically. […]
two passages, 200 µg/mL Zeocin (Invivogen) was added to the medium every other passage to maintain selection pressure. The cells were incubated in a humidified atmosphere at 37 °C and 5% CO 2. […]
Aldrich), and 100 µg/mL streptomycin (Sigma -Aldrich).
The tested compounds were dissolved in DMSO and further di luted in culture medium to the desired final concentrations, such that the final DMSO concentration never exceeded 0.1%. […]
4.6 NOD1/NOD2-NF-kB reporter assay
HEK-Blue NOD2 or NOD1 cells were seeded (25,000 cells/well) in 96 -well plates in 100 µL HEK-Blue detection medium (Invivogen, San Diego, CA, USA) and treated with compounds ( 2 µM for fixed […]
the corresponding vehicle (0.1% DMSO). After 18 h of incubation (37 °C, 5% CO2), secreted embryonic alkaline phosphatase (SEAP) activity was determined spectrophotometrically as absorbance at 630 nm (BioTek Synergy microplate reader; Winooski, VT, USA). EC50 values were calculated using Prism software (version 9; GraphPad Software, CA, USA). The experiments were run in duplicates and repeated as at least three independent biological replicates. […]

PBMCs = assay: Cytokine release from peripheral blood mononuclear cells; format: cell-based; conditions: human PBMCs, 18 h; NOD2 agonists 1 μM; LPS 10 ng/mL; IFN-γ 200 U/mL
From the text: Encouraged by the potent NOD2 activity of 40, we preliminarily evaluated its immunostimulatory potential in human primary peripheral blood mononuclear cells (PBMCs). Specifically, we first investigated the ability of 40 to induce cytokine production in PBMCs. While activation of NOD2 alone is sufficient to elicit cytokine responses, these responses are usually of low intensity. However, NOD2 agonists can act in synergy with ligands of other innate immune receptors and proinflammatory cytokines to induce considerably stronger responses. We were particularly intrigued by the synergistic interactions between NOD2, TLR4, and IFN-γ. The synergy between NOD2 agonists and TLR4 agonists in terms of cytokine secretion, including IFN-γ, is well-established.[29],[30] Similarly, IFN-γ has previously been reported to augment the MDP-mediated activation and cytokine production by dendritic cells and macrophages.[31],[32]
Figure 2 Synergistic effects of 40 with LPS and IFN-γ on induction of cytokine production from PBMCs. Cytokine concentrations were measured after 18 h of stimulation with NOD2 agonists (1 μM) in the presence or absence of LPS (10 ng/mL) and IFN-γ (200 U/mL) or the corresponding vehicle (0.1% DMSO; NT). Data are expressed as mean ± SEM of three independent experiments. Statistical significance was determined by one-way ANOVA followed by Bonferroni’s multiple-comparisons test; *, p < 0.05, **, p < 0.01, ***, p < 0.001 versus vehicle-treated control; ##, p < 0.01, ###, p < 0.001 versus 40 or LPS alone.
Figure S5. The effect of 40 on the production of cytokines from human PBMCs is NOD2 -dependent. PBMCs were pre-incubated for 1 h in the presence or absence of the NOD2 antagonist SG84 (10 µM), before the addition of 40 (1 µM). Cytokine concentrations in supernatants were measured after 18 h stimulation.
Data are expressed as mean s ± SEM of 3 independent experiments. Statistical significance was determined by one-way ANOVA followed by Bonferroni’s multiple comparisons test; **, p < 0.01, ***, p < 0.001. […]
4.9 Cytokine release from peripheral blood mononuclear cells
Peripheral blood mononuclear cells were seeded ( 500,000 cells/well) in 24-well plates in 500 µL growth medium and treated with MDP (1 µM), 2 (1 µM), or 40 (1 µM), in the presence or absence of LPS (10 ng/mL) or IFN-γ (200 U/mL), or the corresponding vehicle (0.1% DMSO). In some wells, PBMCs were pre-treated for 1 h with the NOD2 antagonist SG84 (10 µM), before the addition of 40 (1 µM). Cell-free supernatants were collected after 18 h of incubation (37 °C, 5% CO2) and stored at -80 °C until tested.
Cytokine production was determined with BD Cytometric Bead Array human inflammatory cytokines kit (BD Bioscience) on an Attune NxT flow cytometer (Thermo Fisher Scientific, Waltham, MA, USA). Standard curves were generated using recombinant cytokines contained in the kit. The data were analyzed using the FlowJo (Tree Star, Inc., Ashland, OR, USA) and Prism (GraphPad, San Diego, CA, USA) software.

K562 cancer cells [1] = test system: K562 cancer cells; design: method as in PMID 34043358; conditions: cited from earlier work
K562 cancer cells [2] = assay: PBMC cytotoxicity against K562 cancer cells; format: cell-based; conditions: 1 μM + LPS 1 μg/mL or IFN-γ 200 U/mL, 18 h; 40:1, 4 h
Description: In addition, we also investigated the ability of 40, both alone and in combination with LPS and IFN-γ, to induce direct and nonspecific cytolytic activity of PBMCs against cancer cells. For this purpose, we used a functional cytotoxicity assay based on the coincubation of preactivated PBMCs and fluorescently labeled K562 cancer cells.[33] Among the heterogeneous subpopulations of PBMCs, natural killer (NK) cells and, to a lesser extent, monocytes represent the main effector cell types in this assay. NK cells play an essential role in tumor and viral immunosurveillance, both through direct cytolytic destruction of aberrant cells and by facilitating the recruitment and activation of other immune cells through the secretion of cytokines.[34] In addition to their well-established role in cancer immunotherapy, NK cells thus also provide an attractive target in the development of vaccine adjuvants, particularly when Th1 cellular immune responses are preferred.[35] Other cell populations, however, may contribute to the magnitude of NK cell-mediated responses via cytokine secretion. To account for the contribution of these accessory cells and to more accurately represent in vivo conditions, the entire PBMC population was used instead of isolated NK cells.
Figure 3 2 and 40 synergize with LPS and IFN-γ to induce the cytotoxicity of PBMCs against K562 cancer cells. Following 18 h of stimulation of PBMCs with 2 (1 μM) or 40 (1 μM) in the presence or absence of LPS (1 μg/mL) and IFN-γ (200 U/mL) or the corresponding vehicle (0.1% DMSO; NT), K562 cells were added in a 40:1 effector to target cell ratio. Cytotoxicity was determined after 4 h of coincubation. IL-2 (200 U/mL) was used as the positive control. Data are shown as relative activities to vehicle-treated control (0.1% DMSO) and are the means ± SEMs of duplicates of two independent experiments. Statistical significance was determined by one-way ANOVA followed by Dunnet’s multiple-comparisons test; **, p < 0.01, ***, p < 0.001. […]
4.8 Peripheral blood mononuclear cell cytotoxicity
The PBMC cytotoxicity assays using K562 cells were performed as described previously, with some modifications.2 PBMCs were seeded (400,000 cells/well) in duplicates in 96 -well U-bottom plates and treated with 2 (1 µM) or 40 (1 µM), in the presence or absence of LPS (1 µg/mL) or IFN-γ (200 U/mL), IL-2 (200 U/mL), or the corresponding vehicle (0.1% DMSO) for 18 h. K562 were stained with carboxyfluorescein succinimidyl ester (CFSE, Invitrogen, Carlsbad, CA, USA), washed twice with complete medium, and added (10,000 cells/well) to the pre-treated PBMCs for a final effector cell to target tumor cell ratio of 40:1. After a 4 h coincubation (37 °C, 5% CO2), cells were stained with Sytox Blue dead cell stain (Invitrogen) and analyzed using an Attune NxT flow cytometer (Thermo Fisher Scientific, Waltham, MA, USA) and FlowJo software (Tree Star, Inc., Ashland, OR, USA). Cells that were positive for both CFSE and Sytox Blue were defined as dead K562 cells. PBMCs alone and CFSE-labeled K562 cells alone were also treated with the compounds at the same concentrations and stained with Sytox Blue to exclude any direct cytotoxicity of the compounds towards the PBMCs and cancer cells.
4.9 Cytokine release from peripheral blood mononuclear cells […]

[3] = HEK-Blue NOD2 cells, 18 h, means ± SEMs of at least three independent experiments, 8 or 16 concentrations (0.1 nM to 20 μM)

T1 sequence (Q9HC29 whole entry): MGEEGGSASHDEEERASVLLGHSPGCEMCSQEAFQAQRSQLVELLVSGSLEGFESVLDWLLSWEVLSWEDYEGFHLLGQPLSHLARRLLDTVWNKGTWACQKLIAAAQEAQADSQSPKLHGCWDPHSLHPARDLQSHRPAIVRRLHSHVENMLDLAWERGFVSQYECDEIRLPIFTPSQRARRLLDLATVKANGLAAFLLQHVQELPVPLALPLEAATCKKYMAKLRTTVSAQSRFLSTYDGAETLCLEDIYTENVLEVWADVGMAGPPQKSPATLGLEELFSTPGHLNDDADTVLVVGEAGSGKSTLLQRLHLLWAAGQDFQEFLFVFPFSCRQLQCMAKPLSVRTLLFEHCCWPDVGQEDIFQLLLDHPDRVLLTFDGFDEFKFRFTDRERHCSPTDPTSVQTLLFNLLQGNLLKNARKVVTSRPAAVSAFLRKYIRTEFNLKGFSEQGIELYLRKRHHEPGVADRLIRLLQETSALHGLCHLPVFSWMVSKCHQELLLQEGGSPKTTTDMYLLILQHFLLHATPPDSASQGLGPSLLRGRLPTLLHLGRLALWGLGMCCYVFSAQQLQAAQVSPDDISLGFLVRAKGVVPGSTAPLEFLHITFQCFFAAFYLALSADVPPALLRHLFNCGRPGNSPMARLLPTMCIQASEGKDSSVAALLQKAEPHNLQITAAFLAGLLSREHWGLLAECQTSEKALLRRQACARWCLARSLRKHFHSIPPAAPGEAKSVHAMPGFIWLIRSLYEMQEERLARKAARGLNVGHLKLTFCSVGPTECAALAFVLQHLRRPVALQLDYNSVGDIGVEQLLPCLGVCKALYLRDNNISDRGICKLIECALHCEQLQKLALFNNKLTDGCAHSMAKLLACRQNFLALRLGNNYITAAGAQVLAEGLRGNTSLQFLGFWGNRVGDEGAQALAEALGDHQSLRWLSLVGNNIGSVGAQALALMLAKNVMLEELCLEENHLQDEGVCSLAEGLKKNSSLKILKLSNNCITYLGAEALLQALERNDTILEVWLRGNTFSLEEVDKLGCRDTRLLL

Molecule: CCOC(=O)CC[C@@H](NC(=O)[C@@H](NC(=O)CNC(=O)/C=C/c1ccc(O)c(OC)c1)C12CC3CC(CC(C3)C1)C2)C(=O)OCC [Compound 16]
- EC50 (human NOD2; [3]): > 10000 nM

Molecule: CCOC(=O)CC[C@@H](NC(=O)[C@H](Cc1ccncc1)NC(=O)CNC(=O)/C=C/c1ccc(O)c(OC)c1)C(=O)OCC [Compound 15]
- NOD2 agonistic activity at the highest concentration tested (human NOD2; 20 μM, HEK-Blue NOD2 cells): only minor NOD2 agonistic activity
- EC50 (human NOD2; [3]): > 10000 nM

Molecule: CCOC(=O)CC[C@@H](NC(=O)[C@@H](NC(=O)CNC(=O)/C=C/c1ccc2c(c1)OCO2)C(C)C)C(=O)OCC [Compound 29]
- EC50 (human NOD2; HEK-Blue NOD2 cells): 2670 nM
- EC50 (human NOD2; [3]): 2670 ± 357 nM
- reduction in potency relative to 1 (human NOD2; NOD2 EC50 versus compound 1): 30 fold

Molecule: CCOC(=O)CC[C@@H](NC(=O)[C@@H](NC(=O)CNC(=O)c1cc2ccccc2o1)C(C)C)C(=O)OCC [Compound 30]
- EC50 (human NOD2; HEK-Blue NOD2 cells): 4340 nM
- EC50 (human NOD2; [3]): 4340 ± 468 nM

Molecule: COc1cc(/C=C/C(=O)NCC(=O)N[C@H](C(=O)N[C@H](CCC(=O)OC2CCCC2)C(=O)OC2CCCC2)C(C)C)ccc1OC(=O)CC12CC3CC(CC(C3)C1)C2 [Compound 41]
- EC50 (human NOD2; [3]): 44 ± 9 nM

Molecule: lipopolysaccharide [LPS, reference compound]
- production of IL-1β, IL-6, IL-8 and TNF-α, stimulant alone (PBMCs): strong increase

Molecule: CCOC(=O)CC[C@@H](NC(=O)[C@@H](NC(=O)CNC(=O)/C=C/c1ccc(O)c(OC)c1)C(C)C)C(=O)OCC [Compound 1]
- induction of cytotoxic activity of PBMCs (previous observations) (K562 cancer cells [1]): failed to induce

Molecule: CCOC(=O)CC[C@@H](NC(=O)[C@H](CCc1ccccc1)NC(=O)CNC(=O)/C=C/c1ccc(O)c(OC)c1)C(=O)OCC [Compound 17]
- EC50 (human NOD2; [3]): 420 ± 41 nM

Molecule: COc1cc(/C=C/C(=O)NCC(=O)N[C@H](C(=O)N[C@H](CCC(=O)OC2CCCC2)C(=O)OC2CCCC2)C(C)C)ccc1O [Compound 2]
- LPS- and IFN-γ-induced cytotoxic activity of PBMCs against K562, costimulation (K562 cancer cells [2]): significantly enhanced
- induction of cytotoxic activity of PBMCs (previous observations) (K562 cancer cells [1]): failed to induce
- production of IL-1β, IL-6, IL-8 and TNF-α, stimulant alone (PBMCs): modest production

B1: interferon-γ (protein, UniProt P01579 24-161, looked up)
Interferon gamma: QDPYVKEAENLKKYFNAGHSDVADNGTLFLGILKNWKEESDRKIMQSQIVSFYFKLFKNFKDDQSIQKSVETIKEDMNVKFFNSNKKKRDDFEKLTNYSVTDLNVQRKAIHELIQVMAELSPAAKTGKRKRSQMLFRG
notes: proinflammatory cytokine used as costimulus
- production of IL-1β, IL-6, IL-8 and TNF-α, stimulant alone (PBMCs): negligible cytokine secretion

Continued, in another order:

- EC50 (human NOD2; HEK-Blue NOD2 cells): 2620 nM
- EC50 (human NOD2; [3]): 2620 ± 209 nM
Molecule: CCOC(=O)CC[C@@H](NC(=O)[C@@H](NC(=O)CNC(=O)c1nc(-c2ccccc2)oc1C)C(C)C)C(=O)OCC [Compound 34]

- EC50 (human NOD2; [3]): 760 ± 84 nM
Molecule: CCOC(=O)CC[C@@H](NC(=O)[C@@H](NC(=O)CNC(=O)c1cc2cc([N+](=O)[O-])ccc2o1)C(C)C)C(=O)OCC [Compound 33]

- EC50 (human NOD2; HEK-Blue NOD2 cells): 1930 nM
- EC50 (human NOD2; [3]): 1930 ± 168 nM
Molecule: CCOC(=O)CC[C@@H](NC(=O)[C@@H](NC(=O)CNC(=O)c1cc2ccc(Br)cc2o1)C(C)C)C(=O)OCC [Compound 31]

- EC50 (human NOD2; [3]): 203 ± 12 nM
Molecule: CC(=O)NC1C(O)OC(CO)C(O)C1OC(C)C(=O)NC(C)C(=O)NC(CCC(=O)O)C(N)=O (stereo not drawn) [MDP, muramyl dipeptide, reference compound]
- production of IL-1β, IL-6, IL-8 and TNF-α, stimulant alone (PBMCs): modest production

- EC50 (human NOD2; [3]): 316 ± 30 nM
Molecule: CCOC(=O)CC[C@@H](NC(=O)[C@@H](NC(=O)CNC(=O)c1cc2cc(Br)ccc2o1)C(C)C)C(=O)OCC [Compound 32]
